How the values were obtained:
[1] = system: MSSA 29213, MRSA A6250596 (fluoroquinolone-resistant) and MRSA A7080336; test: Further combination study of AFN-1252; format: cell-based, S. aureus; details: three strains
[2] = system: 20 strains of staphylococci, including 10 MRSA; test: MIC with and without pulmonary surfactant, all strains; format: cell-based, S. aureus; details: for effect of pulmonary surfactant on MICs: in words
in vitro = details: mouse
MSSA 29213 = test: Effect of serum binding on MIC
[3] = system: serum proteins of mouse, rat, dog and humans; test: Serum protein-binding assays, summary over methods and species; format: in vitro ADME, human
MRSA 1659 = test: Effect of serum on rate of kill; format: cell-based, S. aureus; details: for reduction in the viable count: 10 hours
S. aureus Smith = details: single oral dose of 1 mg/kg, mouse; cited from earlier work

For C[C@@H](O)[C@H]1C(=O)N2C(C(=O)O)=C(S[C@@H]3CN[C@H](C(=O)N(C)C)C3)[C@H](C)[C@H]12 [meropenem], the “interaction with AFN-1252” value [1] was “did not detect any synergy or antagonism”.

For CN[C@H](CC(C)C)C(=O)N[C@H]1C(=O)N[C@@H](CC(N)=O)C(=O)N[C@H]2C(=O)N[C@H]3C(=O)N[C@H](C(=O)N[C@H](C(=O)O)c4cc(O)cc(O)c4-c4cc3ccc4O)[C@H](O)c3ccc(c(Cl)c3)Oc3cc2cc(c3O[C@@H]2O[C@H](CO)[C@@H](O)[C@H](O)[C@H]2O[C@H]2C[C@](C)(N)[C@H](O)[C@H](C)O2)Oc2ccc(cc2Cl)[C@H]1O [Vancomycin], the “effect of pulmonary surfactant on MICs” value [2] was “generally unaffected”.

With CCCCCCCCCC(=O)N[C@@H](Cc1c[nH]c2ccccc12)C(=O)N[C@H](CC(N)=O)C(=O)N[C@@H](CC(=O)O)C(=O)N[C@@H]1C(=O)NCC(=O)N[C@@H](CCCN)C(=O)N[C@@H](CC(=O)O)C(=O)N[C@H](C)C(=O)N[C@@H](CC(=O)O)C(=O)NCC(=O)N[C@H](CO)C(=O)N[C@@H]([C@H](C)CC(=O)O)C(=O)N[C@@H](CC(=O)c2ccccc2N)C(=O)O[C@@H]1C [Daptomycin] the “elevation of MICs” value ([2]; presence of surfactant at 0·8 mg/ml) was “at least 32 fold”.

In the case of CO/N=C(\C(=O)N[C@@H]1C(=O)N2C(C(=O)O)=C(COC(N)=O)CS[C@H]12)c1ccco1 [Cefuroxime], the “interaction with AFN-1252” value [1] is reported as “did not detect any synergy or antagonism”.

With penicillin the “interaction with AFN-1252” value [1] was “did not detect any synergy or antagonism”.

For CO/N=C(\C(=O)N[C@@H]1C(=O)N2C(C(=O)O)=C(CSc3nc(=O)c(=O)[nH]n3C)CS[C@H]12)c1csc(N)n1 [ceftriaxone], the “interaction with AFN-1252” value [1] was “did not detect any synergy or antagonism”.

With COc1c(N2CCNC(C)C2)c(F)cc2c(=O)c(C(=O)O)cn(C3CC3)c12 (stereo not shown) [gatifloxacin] the “interaction with AFN-1252” value [1] was “did not detect any synergy or antagonism”.

For CC[C@H]1OC(=O)[C@H](C)[C@@H](O[C@H]2C[C@@](C)(OC)[C@@H](O)[C@H](C)O2)[C@H](C)[C@@H](O[C@@H]2O[C@H](C)C[C@H](N(C)C)[C@H]2O)[C@](C)(O)C[C@@H](C)CN(C)[C@H](C)[C@@H](O)[C@]1(C)O [azithromycin], the “interaction with AFN-1252” value [1] was “did not detect any synergy or antagonism”.

In the case of C[C@H]1COc2c(N3CCN(C)CC3)c(F)cc3c(=O)c(C(=O)O)cn1c23 [Levofloxacin], the “interaction with AFN-1252” value [1] is reported as “did not detect any synergy or antagonism”.

For Cc1c(CN(C)C(=O)/C=C/c2cnc3c(c2)CCC(=O)N3)oc2ccccc12 [AFN-1252], the fraction unbound (in vitro) was 0.06 to 0.08, the “increase in MIC” value (MSSA 29213; 4% human serum albumin in CAMHB) was 8 fold and the “increase in MIC” value (MSSA 29213; 50% human serum vs serum-free CAMHB) was 8 fold. For the same molecule, the “binding from MIC shift” value (MSSA 29213; 50% serum) was “approximately 90%”, the “serum binding, equilibrium dialysis” value ([3]; all serum types, all concentrations) was “exceeded 95%” and the “binding to serum proteins” value ([3]; mouse, rat, dog and humans, overall) was about 95%. For the same molecule, the “effect on viable count” value (MRSA 1659; 75% human serum, 8× MIC) was “bacteriostatic activity”, the “reduction in the viable count” value (MRSA 1659; 75% human serum, 64× MIC) was 2 log10 and the “effect on viable count” value (MRSA 1659; 75% mouse serum, 64× MIC) was “bacteriostasis”. The “reduction in the viable count” value (MRSA 1659; absence of serum, 4× MIC) was 1–2 log10, the “reduction in the viable count” value (MRSA 1659; absence of serum, 64× MIC) was 4 log and the “effect of pulmonary surfactant on MICs” value [2] was “not affected”. For the same molecule, the “protection from lethal peritoneal infection” value (S. aureus Smith) was 100%.

From publication PMC3558989 (Journal of Chemotherapy (Florence, Italy), 2013)
